According to publication PMC7093416, “Selective USP7 inhibition elicits cancer cell killing through a p53-dependent mechanism” (Scientific Reports, 2020):

Target: T1, USP7 C223A catalytic domain (Homo sapiens, UniProt Q93009, C223A)
T1 construct: catalytic domain (208–560) used were cloned as described; inferred from Ni-NTA purification; made in house; host or cells: E. coli BL21 (DE3)
Experiment: Intact MS labeling of USP7 C223A catalytic domain
Format: binding
Conditions: 2.5-fold molar excess, 2 hours
Description: The constructs encoding USP7 full length (amino acids 1–1102) and catalytic domain (208–560) used were cloned as described. Both constructs were overexpressed in E. coli BL21 (DE3). Cells were grown at 37 °C to an OD of 0.9, cooled to 16 °C, induced with 500 μM isopropyl-1-thio-D-galactopyranoside (IPTG), incubated overnight at 16 °C, collected by centrifugation, and stored at −80 °C. Cell pellets were sonicated in lysis buffer (25 mM Tris pH 8, 1 M NaCl, and 10 mM BME) supplemented with 10 μg/ml phenylmethanesulfonylfluoride (PMSF) and the resulting lysate was centrifuged at 30,000 xg for 40 min. Ni-NTA beads (Qiagen) were mixed with lysate supernatant for 2 hours, and washed with lysis buffer supplemented with 25 mM imidazole. The bound protein was eluted with lysis buffer supplemented with 300 mM imidazole. […]
Figure S1: Full-length recombinant purified USP7 was pre-incubated with XL041 at the indicated concentrations for the indicated times, then Ub-AMC was added and fluorescence was monitored. […]
Figure S5: MCF7 cells were transfected with the indicated pcDNA constructs for 48 hours, then treated with XL177A at the indicated concentration for 3 hours. Cells were lysed, and FLAG-USP7 target engagement was assessed with the DUB ABP HA-Ub-VS. Densitometry was performed using ImageStudio software and analyzed using Graphpad Prism. […]

T1 sequence (Q93009 208-560 C223A): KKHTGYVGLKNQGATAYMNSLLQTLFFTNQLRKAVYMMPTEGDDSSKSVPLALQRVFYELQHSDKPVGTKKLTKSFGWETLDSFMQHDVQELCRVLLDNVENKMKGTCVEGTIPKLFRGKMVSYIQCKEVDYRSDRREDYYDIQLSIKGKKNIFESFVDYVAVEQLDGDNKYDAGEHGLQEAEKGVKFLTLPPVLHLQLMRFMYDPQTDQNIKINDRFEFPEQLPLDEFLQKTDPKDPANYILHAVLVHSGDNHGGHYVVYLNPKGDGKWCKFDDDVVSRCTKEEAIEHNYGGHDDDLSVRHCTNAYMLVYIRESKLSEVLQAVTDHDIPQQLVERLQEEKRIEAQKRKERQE

- mass shift with USP7 C223A: no mass shift was detected
Structure (SMILES): CN1CCN(CCC(=O)Nc2ccc3c(=O)n(CC4(O)CCN(C(=O)[C@@H](CCCNC(=O)c5ccc6c(Cl)c7c(nc6c5)CCCC7)Cc5ccccc5)CC4)cnc3c2)CC1 [XL177A]
